Test [1] deals with Ribosomal protein S6 kinase alpha-2 (Homo sapiens) (UniProt Q15349). Kind of test: Selectivity interaction (KinomeScan (DiscoverX)) EUB0000586a RPS6KA2. Conditions: at 1 µM.
In test [2] the target is Serine/threonine-protein kinase tousled-like 1 (Homo sapiens) (UniProt Q9UKI8). The test can be described thus: Selectivity interaction (KinomeScan (DiscoverX)) EUB0000586a TLK1. Conditions: at 1 µM.
Test [3] concerns the target Ribosomal protein S6 kinase alpha-1 (Homo sapiens) (UniProt Q15418). The test can be described thus: Selectivity interaction (KinomeScan (DiscoverX)) EUB0000586a RPS6KA1. As to conditions: at 1 µM.
Test [4] addresses Death-associated protein kinase 1 (Homo sapiens) (UniProt P53355). The test can be described thus: Selectivity interaction (KinomeScan (DiscoverX)) EUB0000586a DAPK1. As to conditions: at 1 µM.
Test [5] addresses Ribosomal protein S6 kinase alpha-6 (Homo sapiens) (UniProt Q9UK32). The test can be described thus: Selectivity interaction (KinomeScan (DiscoverX)) EUB0000586a RPS6KA6. Conditions: at 1 µM.
The target of test [6] is T1, D(1B) dopamine receptor (Homo sapiens, UniProt P21918). Kind of test: Selectivity interaction (GPCR panel (PDSP screen)) EUB0000586a DRD5. Conditions: at 10 µM.
Test [7] addresses T2, Serine/threonine-protein kinase 38-like (Homo sapiens, UniProt Q9Y2H1). Kind of test: Selectivity interaction (KinomeScan (DiscoverX)) EUB0000586a STK38L. Conditions: at 1 µM.
For test [8], the target named is Serine/threonine-protein kinase 24 (Homo sapiens) (UniProt Q9Y6E0). Kind of test: Selectivity interaction (KinomeScan (DiscoverX)) EUB0000586a STK24. As to conditions: at 1 µM.
Test [9] addresses Kappa-type opioid receptor (Homo sapiens, UniProt P41145). The test can be described thus: Selectivity interaction (GPCR panel (PDSP screen)) EUB0000586a OPRK1. As to conditions: at 10 µM.
The target of test [10] is 5-hydroxytryptamine receptor 3A (Homo sapiens) (UniProt P46098). The test can be described thus: Selectivity interaction (GPCR panel (PDSP screen)) EUB0000586a HTR3A. Conditions: at 10 µM.
In test [11] the target is Ephrin type-A receptor 5 (Homo sapiens) (UniProt P54756). Kind of test: Selectivity interaction (KinomeScan (DiscoverX)) EUB0000740a EPHA5. As to conditions: at 1 µM.
The target of another test is Aurora kinase B (Homo sapiens, UniProt Q96GD4). Kind of test: Selectivity interaction (KinomeScan (DiscoverX)) EUB0000740a AURKB. As to conditions: at 1 µM.
Test [12] deals with T3, Serine/threonine-protein kinase LATS2 (Homo sapiens) (UniProt Q9NRM7).
T3 sequence (whole entry): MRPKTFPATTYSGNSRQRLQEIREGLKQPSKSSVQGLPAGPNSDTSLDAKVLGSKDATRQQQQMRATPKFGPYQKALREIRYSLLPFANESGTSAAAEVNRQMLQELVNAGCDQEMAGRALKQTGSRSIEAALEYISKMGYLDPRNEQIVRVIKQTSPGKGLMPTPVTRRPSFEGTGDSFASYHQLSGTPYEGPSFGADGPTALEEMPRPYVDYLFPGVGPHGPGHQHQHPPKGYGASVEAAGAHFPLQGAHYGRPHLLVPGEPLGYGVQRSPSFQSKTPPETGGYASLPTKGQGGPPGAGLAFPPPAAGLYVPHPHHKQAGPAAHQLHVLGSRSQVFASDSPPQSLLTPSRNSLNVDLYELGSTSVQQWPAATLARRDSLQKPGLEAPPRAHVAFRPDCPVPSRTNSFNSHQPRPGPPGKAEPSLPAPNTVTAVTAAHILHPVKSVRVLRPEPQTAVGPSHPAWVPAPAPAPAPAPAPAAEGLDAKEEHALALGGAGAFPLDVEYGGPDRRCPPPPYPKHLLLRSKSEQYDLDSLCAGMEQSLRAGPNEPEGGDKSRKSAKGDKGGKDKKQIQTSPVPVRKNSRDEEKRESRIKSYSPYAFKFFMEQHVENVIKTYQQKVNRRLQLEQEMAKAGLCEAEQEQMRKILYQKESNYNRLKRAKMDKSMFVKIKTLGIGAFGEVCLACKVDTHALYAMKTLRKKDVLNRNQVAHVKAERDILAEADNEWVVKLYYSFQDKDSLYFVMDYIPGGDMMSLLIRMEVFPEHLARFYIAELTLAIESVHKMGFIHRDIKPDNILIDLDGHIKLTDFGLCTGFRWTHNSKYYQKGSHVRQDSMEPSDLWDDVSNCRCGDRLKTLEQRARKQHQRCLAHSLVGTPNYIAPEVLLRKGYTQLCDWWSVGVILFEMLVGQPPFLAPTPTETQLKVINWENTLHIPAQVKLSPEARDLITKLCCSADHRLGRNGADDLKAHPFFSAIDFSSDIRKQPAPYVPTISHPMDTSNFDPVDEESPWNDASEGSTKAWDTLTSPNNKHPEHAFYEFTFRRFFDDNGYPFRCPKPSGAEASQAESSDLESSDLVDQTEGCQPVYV
The test can be described thus: Selectivity interaction (KinomeScan (DiscoverX)) EUB0000740a LATS2. As to conditions: at 1 µM.

Test [13] has as its target Atypical kinase COQ8B, mitochondrial (Homo sapiens) (UniProt Q96D53). The test can be described thus: Selectivity interaction (KinomeScan (DiscoverX)) EUB0000740a ADCK4. Conditions: at 1 µM.
Test [14] concerns the target T4, Tyrosine-protein kinase ABL1 (Homo sapiens, UniProt P00519). As to conditions: at 20 µM.
In test [15] the target is T4, Tyrosine-protein kinase ABL1. As to conditions: at 20 µM. The source holds these as a separate data set.
The target in test [16] is Tyrosine-protein kinase JAK1 (Homo sapiens, UniProt P23458). Conditions: at 1 µM.
Test [17] has as its target T5, Cytoplasmic tyrosine-protein kinase BMX (Homo sapiens) (UniProt P51813).
T5 sequence (whole entry): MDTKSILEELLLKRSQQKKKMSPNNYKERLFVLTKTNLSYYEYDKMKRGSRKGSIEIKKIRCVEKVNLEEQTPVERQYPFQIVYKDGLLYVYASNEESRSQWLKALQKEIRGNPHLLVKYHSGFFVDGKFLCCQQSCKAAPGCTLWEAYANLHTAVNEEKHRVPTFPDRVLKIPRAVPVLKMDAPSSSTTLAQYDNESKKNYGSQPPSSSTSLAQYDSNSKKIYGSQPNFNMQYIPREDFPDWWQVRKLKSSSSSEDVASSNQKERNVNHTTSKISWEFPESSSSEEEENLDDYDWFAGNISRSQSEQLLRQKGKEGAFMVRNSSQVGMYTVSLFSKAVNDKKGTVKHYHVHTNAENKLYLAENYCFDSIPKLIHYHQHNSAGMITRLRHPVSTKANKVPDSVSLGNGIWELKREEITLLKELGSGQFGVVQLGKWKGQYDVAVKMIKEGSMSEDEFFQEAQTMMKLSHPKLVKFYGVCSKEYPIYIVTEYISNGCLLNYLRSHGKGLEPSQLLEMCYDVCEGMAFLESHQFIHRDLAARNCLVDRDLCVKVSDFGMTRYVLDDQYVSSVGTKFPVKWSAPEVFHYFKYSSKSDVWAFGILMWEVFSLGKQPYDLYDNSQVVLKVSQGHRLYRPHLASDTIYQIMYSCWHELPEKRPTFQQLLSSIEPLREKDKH
Kind of test: Selectivity interaction (KinomeScan (DiscoverX)) EUB0000549a BMX. Conditions: at 1 µM.

The target of test [18] is Transient receptor potential cation channel subfamily M member 6 (Homo sapiens) (UniProt Q9BX84). Kind of test: Selectivity interaction (KinomeScan (DiscoverX)) EUB0000549a TRPM6. As to conditions: at 1 µM.
In test [19] the target is T2, Serine/threonine-protein kinase 38-like. The test can be described thus: Selectivity interaction (KinomeScan (DiscoverX)) EUB0000549a STK38L. As to conditions: at 1 µM.
Test [20] deals with Serine/threonine-protein kinase Nek4 (Homo sapiens) (UniProt P51957). Kind of test: Selectivity interaction (KinomeScan (DiscoverX)) EUB0000549a NEK4. As to conditions: at 1 µM.
Test [21] deals with T6, Phosphatidylinositol 5-phosphate 4-kinase type-2 gamma (Homo sapiens) (UniProt Q8TBX8).
T6 sequence (whole entry): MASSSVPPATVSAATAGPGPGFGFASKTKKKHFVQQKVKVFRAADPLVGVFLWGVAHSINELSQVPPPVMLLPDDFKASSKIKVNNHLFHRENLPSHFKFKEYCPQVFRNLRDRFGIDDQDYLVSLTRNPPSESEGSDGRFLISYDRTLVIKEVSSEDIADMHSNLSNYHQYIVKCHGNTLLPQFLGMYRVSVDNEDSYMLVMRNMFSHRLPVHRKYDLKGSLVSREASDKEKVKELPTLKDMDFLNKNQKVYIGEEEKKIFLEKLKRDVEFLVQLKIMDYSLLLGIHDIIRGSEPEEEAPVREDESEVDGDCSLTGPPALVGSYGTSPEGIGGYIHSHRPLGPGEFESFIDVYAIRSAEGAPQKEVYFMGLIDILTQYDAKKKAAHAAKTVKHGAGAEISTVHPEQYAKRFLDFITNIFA
Kind of test: Selectivity interaction (KinomeScan (DiscoverX)) EUB0000343a PIP4K2C. As to conditions: at 1 µM.

In test [22] the target is Serine/threonine-protein kinase Nek1 (Homo sapiens) (UniProt Q96PY6). The test can be described thus: Selectivity interaction (KinomeScan (DiscoverX)) EUB0000343a NEK1. Conditions: at 1 µM.
Test [23] has as its target 5-hydroxytryptamine receptor 1B (Homo sapiens) (UniProt P28222). The test can be described thus: Selectivity interaction (GPCR panel (PDSP screen)) EUB0000343a HTR1B. As to conditions: at 10 µM.
In test [24] the target is T2, Serine/threonine-protein kinase 38-like. Kind of test: Selectivity interaction (KinomeScan (DiscoverX)) EUB0000352a STK38L. As to conditions: at 1 µM.
Test [25] addresses Sodium-dependent dopamine transporter (Homo sapiens, UniProt Q01959). Kind of test: Selectivity interaction (Eurofins-Panlabs screen (receptors)) EUB0000352a SLC6A3. As to conditions: at 10 µM.
The target in test [26] is Leucine-rich repeat serine/threonine-protein kinase 2 (Homo sapiens, UniProt Q5S007). The test can be described thus: Selectivity interaction (KinomeScan (DiscoverX)) EUB0000352a LRRK2. As to conditions: at 1 µM.
The target of test [27] is Gamma-aminobutyric acid receptor subunit beta-2 (Homo sapiens) (UniProt P47870). Kind of test: Selectivity interaction (Eurofins-Panlabs panel (at Boehringer Ingelheim)) EUB0000314b GABRB2. As to conditions: at 10 µM.
Test [28] addresses T1, D(1B) dopamine receptor. Kind of test: Selectivity interaction (GPCR panel (PDSP screen)) EUB0000314b DRD5. Conditions: at 10 µM.
The target in test [29] is Beta-1 adrenergic receptor (Homo sapiens) (UniProt P08588). Kind of test: Selectivity interaction (Eurofins-Panlabs panel (at Boehringer Ingelheim)) EUB0000314b ADRB1. As to conditions: at 10 µM.
Test [30] addresses T3, Serine/threonine-protein kinase LATS2 (Homo sapiens). Kind of test: Selectivity interaction (KinomeScan (DiscoverX)) EUB0000314b LATS2. Conditions: at 1 µM.

The record followed here is ChEMBL document CHEMBL5212743, “Selectivity Literature for EUbOPEN Chemogenomics Library wave 3” (2023).

T2 sequence (Q9Y2H1 2-464 limits assumed): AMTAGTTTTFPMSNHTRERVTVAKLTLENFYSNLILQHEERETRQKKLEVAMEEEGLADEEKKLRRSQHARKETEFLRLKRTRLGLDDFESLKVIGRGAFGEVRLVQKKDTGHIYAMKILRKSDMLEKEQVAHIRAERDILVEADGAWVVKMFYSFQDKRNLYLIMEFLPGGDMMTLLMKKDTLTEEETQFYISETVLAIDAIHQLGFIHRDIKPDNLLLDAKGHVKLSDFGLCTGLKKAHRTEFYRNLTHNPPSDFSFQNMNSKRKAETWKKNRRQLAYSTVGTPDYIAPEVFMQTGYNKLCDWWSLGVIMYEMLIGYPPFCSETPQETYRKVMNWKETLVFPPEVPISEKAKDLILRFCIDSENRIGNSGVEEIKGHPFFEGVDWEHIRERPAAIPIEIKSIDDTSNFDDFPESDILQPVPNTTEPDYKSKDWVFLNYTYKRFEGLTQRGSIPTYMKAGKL
T4 sequence (P00519 whole entry): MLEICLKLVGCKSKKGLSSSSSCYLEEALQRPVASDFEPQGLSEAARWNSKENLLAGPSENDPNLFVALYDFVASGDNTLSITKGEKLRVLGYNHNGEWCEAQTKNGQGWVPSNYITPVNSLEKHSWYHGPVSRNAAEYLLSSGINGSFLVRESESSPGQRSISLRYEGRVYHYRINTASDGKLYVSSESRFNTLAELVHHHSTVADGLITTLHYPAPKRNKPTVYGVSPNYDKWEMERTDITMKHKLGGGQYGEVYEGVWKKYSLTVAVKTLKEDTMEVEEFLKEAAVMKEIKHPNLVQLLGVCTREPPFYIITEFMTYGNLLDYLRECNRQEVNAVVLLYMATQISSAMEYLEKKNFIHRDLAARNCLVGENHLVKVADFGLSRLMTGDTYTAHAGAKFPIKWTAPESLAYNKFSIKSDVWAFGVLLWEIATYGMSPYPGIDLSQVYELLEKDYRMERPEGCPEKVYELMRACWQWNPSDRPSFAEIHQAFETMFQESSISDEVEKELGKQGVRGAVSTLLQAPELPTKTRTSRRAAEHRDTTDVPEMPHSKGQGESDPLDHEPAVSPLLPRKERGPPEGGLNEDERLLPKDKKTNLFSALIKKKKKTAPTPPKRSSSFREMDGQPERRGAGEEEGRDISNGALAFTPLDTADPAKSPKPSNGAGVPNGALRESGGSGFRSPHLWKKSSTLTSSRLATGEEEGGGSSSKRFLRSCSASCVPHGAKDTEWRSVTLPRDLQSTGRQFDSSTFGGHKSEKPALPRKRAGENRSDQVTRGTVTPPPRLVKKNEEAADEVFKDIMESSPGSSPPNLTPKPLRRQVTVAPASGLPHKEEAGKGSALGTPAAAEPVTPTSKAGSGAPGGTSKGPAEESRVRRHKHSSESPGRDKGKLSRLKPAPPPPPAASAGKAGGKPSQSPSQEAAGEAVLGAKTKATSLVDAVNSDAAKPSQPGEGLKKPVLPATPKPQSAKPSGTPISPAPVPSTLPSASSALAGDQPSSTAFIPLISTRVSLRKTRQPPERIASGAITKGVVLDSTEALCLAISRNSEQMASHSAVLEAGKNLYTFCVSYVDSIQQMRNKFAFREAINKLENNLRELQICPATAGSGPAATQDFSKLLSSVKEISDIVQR
T1 sequence (P21918 whole entry): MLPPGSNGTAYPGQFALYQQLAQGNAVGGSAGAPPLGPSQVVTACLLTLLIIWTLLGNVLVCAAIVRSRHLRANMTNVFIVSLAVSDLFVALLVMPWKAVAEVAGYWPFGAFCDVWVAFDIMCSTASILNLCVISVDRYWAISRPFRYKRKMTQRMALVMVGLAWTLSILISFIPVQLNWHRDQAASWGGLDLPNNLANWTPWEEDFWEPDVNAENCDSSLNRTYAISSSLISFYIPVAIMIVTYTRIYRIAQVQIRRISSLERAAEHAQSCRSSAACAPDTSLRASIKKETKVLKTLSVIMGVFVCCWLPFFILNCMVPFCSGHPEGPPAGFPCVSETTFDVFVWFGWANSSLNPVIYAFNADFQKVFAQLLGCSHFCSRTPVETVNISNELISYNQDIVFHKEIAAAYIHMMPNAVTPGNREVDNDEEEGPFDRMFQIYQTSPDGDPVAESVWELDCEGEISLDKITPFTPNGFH
Sequence of Ephrin type-A receptor 5 (Homo sapiens) (P54756 whole entry): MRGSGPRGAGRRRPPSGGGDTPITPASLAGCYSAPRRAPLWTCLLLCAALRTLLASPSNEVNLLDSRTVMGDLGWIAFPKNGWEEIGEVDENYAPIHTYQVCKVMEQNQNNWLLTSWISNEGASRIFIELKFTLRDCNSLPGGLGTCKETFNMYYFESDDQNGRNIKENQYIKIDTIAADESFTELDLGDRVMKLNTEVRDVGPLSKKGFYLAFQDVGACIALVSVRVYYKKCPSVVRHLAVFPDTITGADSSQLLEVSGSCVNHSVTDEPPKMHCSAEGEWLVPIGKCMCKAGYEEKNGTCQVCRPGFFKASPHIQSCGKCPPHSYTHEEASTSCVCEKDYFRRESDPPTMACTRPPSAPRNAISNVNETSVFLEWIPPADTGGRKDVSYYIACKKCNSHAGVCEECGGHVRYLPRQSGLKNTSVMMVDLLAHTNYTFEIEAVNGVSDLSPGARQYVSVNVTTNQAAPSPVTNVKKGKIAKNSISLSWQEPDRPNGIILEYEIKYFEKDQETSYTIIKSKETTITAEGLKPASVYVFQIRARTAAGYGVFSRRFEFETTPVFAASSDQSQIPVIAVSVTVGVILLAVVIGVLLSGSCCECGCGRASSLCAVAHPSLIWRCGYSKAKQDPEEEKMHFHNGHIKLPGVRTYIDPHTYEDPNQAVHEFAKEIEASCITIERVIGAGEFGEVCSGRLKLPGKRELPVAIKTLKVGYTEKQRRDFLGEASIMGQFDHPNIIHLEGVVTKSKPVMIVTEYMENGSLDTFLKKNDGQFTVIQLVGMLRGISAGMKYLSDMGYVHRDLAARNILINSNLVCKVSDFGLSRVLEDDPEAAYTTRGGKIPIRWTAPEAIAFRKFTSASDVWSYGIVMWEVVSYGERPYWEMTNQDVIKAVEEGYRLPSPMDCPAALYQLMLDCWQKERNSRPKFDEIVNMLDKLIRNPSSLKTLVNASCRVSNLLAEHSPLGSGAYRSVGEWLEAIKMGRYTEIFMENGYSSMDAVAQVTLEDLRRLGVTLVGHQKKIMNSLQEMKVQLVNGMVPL
Sequence of Sodium-dependent dopamine transporter (Q01959 whole entry): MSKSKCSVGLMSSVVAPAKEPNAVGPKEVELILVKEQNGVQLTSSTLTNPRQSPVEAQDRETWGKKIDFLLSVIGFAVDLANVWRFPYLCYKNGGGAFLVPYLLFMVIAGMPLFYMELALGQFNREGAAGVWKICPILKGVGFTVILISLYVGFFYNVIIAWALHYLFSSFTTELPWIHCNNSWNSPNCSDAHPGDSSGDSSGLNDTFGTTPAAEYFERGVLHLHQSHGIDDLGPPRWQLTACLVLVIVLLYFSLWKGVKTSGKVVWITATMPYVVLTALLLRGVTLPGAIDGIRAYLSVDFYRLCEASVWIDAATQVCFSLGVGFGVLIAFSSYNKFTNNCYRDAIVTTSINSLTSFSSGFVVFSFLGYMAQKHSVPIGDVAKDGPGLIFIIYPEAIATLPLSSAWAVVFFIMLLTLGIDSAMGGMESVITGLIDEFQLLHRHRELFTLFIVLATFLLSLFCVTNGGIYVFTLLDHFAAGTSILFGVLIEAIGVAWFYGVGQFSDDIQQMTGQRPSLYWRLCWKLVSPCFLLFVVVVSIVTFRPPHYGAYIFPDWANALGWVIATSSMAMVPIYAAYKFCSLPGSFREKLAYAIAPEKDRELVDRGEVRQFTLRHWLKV
Sequence of Atypical kinase COQ8B, mitochondrial (Homo sapiens) (Q96D53 whole entry): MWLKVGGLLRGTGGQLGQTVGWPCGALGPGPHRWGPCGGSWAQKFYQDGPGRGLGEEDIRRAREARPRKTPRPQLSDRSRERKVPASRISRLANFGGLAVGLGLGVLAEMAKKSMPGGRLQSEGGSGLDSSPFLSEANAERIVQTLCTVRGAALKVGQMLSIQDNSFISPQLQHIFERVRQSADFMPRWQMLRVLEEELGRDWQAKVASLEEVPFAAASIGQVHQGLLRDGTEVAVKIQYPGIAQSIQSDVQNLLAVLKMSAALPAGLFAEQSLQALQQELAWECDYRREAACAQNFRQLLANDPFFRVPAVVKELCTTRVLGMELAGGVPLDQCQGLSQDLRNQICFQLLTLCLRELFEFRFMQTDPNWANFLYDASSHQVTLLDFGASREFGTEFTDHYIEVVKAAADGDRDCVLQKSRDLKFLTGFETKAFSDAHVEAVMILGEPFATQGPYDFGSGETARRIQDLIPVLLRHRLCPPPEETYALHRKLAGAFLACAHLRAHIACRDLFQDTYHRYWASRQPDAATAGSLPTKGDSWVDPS
Sequence of Gamma-aminobutyric acid receptor subunit beta-2 (Homo sapiens) (P47870 whole entry): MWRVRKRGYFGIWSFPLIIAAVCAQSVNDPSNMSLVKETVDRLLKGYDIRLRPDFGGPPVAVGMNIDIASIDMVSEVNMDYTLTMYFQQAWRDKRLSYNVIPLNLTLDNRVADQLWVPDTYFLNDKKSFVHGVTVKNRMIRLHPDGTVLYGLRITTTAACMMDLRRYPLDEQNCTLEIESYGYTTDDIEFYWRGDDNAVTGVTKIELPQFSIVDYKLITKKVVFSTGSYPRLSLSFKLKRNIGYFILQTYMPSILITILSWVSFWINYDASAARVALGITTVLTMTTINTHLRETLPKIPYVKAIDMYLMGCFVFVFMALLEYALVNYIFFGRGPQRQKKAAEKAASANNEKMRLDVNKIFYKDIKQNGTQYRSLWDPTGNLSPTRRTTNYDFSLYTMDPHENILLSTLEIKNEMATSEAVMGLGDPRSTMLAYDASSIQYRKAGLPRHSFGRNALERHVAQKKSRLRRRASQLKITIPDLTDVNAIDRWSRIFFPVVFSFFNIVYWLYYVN

Consider `CCS(=O)(=O)c1cc2cc(C[C@@](O)(CC(C)(C)c3ccc(F)cc3C(N)=O)C(F)(F)F)[nH]c2cn1`, for which the % of control was 0% in test [1]; 0% in test [2]; 0% in test [3]; 0% in [4]; 0% in test [5]; 38% in test [7]. The % of control in [8] is 0%. The % of inhibition on D(1B) dopamine receptor [6] stood at 32%; in test [9], 28%; in test [10], 21%.
Regarding `CN(C)C(=O)Cn1cc(-c2nc(C3(c4ccc(-c5cnc(N)nc5)cc4)CC3)no2)cn1`, the % of control in [11] turned out to be 41%; at Aurora kinase B, 41%; in test [12], 46%; in test [13] it was 44%.
In test [14], `CN(C)C(=O)Cn1cc(-c2nc([C@@](C)(c3ccc(-c4cnc(N)nc4)cc3)C3CC3)no2)cn1` came in with a % of inhibition of 67%. In addition, the % of control in [15] and in [16] was 33% in each case.
`C[C@@]1(Cc2ccc(C#N)cc2)C(=O)N(c2cc(Cl)cc(Cl)c2)c2ncc(C(=O)NC3(c4nc(C5CCC5)no4)CC3)n21`: the % of control in test [17] turned out to be 40%; in test [18], 0%; in [19], 48%; in [20], 12%.
Consider `CS(=O)(=O)NCC[C@H](NC(=O)c1cncc2c1cnn2-c1ccc(F)cc1)c1ccnc(S(C)(=O)=O)c1`, for which the values for the % of control in test [21] and in test [22] were 0% and 45%, respectively. In addition, the % of inhibition in [23] is 47.7%.
Take `CS(=O)(=O)c1cc(C2(NC(=O)c3cncc4c3cnn4-c3ccc(F)cc3)CC2)ccn1`: the % of control stood at 34% in test [24] and 43% in [26]. Further, in test [25], the % of inhibition was determined as 71%.
On to `CCS(=O)(=O)c1cc2cc(C[C@](O)(CC(C)(C)c3ccc(F)cc3C(N)=O)C(F)(F)F)[nH]c2cn1`, for which the % of control was 75% in [27], 75% in test [29] and 40% in test [30]. Besides, at D(1B) dopamine receptor [28], the % of inhibition came out at 34%.
